Experimental data taken from the kinase profiling compilation of Christmann-Franck et al. (2016).

How the values were obtained:
Experiment in all cases: KINOMEscan competition binding
Settings in all cases: compound 10.0 µM
CAMK2B (human) = CAMK2B (human) (UniProt Q13554)
CAMKK2 (human) = CAMKK2 (human) (UniProt Q96RR4)
CASK (human) = CASK (human) (UniProt O14936)
CDK11B (human) = CDK11B (human) (UniProt P21127)
CHEK2 (human) = CHEK2 (human) (UniProt O96017)
CIT (human) = CIT (human) (UniProt O14578)
CLK2 (human) = CLK2 (human) (UniProt P49760)
CLK3 (human) = CLK3 (human) (UniProt P49761)
CaMK1 (human) = CaMK1 (human) (UniProt Q14012)
Sequence of CaMK1 (human) (Q14012 whole entry, looked up): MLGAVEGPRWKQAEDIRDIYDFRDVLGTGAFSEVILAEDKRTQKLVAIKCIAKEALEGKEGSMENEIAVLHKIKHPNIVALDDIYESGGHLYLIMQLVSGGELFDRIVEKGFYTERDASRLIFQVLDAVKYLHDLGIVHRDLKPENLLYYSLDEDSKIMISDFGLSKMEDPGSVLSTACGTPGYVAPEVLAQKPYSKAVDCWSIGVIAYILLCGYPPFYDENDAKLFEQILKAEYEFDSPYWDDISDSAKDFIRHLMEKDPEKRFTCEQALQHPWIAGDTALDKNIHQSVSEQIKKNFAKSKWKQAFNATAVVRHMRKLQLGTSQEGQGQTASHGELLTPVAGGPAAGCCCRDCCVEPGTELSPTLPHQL

DCLK1 (human) = DCLK1 (human) (UniProt O15075)
DYRK2 (human) = DYRK2 (human) (UniProt Q92630)
[1] = system: EGFR (human), P00533 [L858R]
ERN1 (human) = ERN1 (human) (UniProt O75460)
FGFR2 (human) = FGFR2 (human) (UniProt P21802)
GRK4 (human) = GRK4 (human) (UniProt P32298)
GRK7 (human) = GRK7 (human) (UniProt Q8WTQ7)
HCK (human) = HCK (human) (UniProt P08631)
Sequence of HCK (human) (P08631 whole entry, looked up): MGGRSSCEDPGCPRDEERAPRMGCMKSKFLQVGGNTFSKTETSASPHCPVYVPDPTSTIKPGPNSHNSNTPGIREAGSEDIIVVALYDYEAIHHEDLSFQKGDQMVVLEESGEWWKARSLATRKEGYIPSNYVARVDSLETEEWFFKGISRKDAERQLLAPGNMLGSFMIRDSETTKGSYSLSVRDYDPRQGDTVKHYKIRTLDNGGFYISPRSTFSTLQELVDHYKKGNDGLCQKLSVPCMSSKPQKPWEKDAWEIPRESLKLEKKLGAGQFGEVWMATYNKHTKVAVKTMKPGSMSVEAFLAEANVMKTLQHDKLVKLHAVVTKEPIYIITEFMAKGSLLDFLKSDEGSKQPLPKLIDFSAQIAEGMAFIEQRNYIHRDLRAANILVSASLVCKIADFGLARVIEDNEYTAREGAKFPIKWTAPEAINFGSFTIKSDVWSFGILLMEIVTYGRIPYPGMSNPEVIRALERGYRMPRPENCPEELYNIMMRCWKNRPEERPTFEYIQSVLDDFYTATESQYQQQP

HIPK3 (human) = HIPK3 (human) (UniProt Q9H422)
IRAK4 (human) = IRAK4 (human) (UniProt Q9NWZ3)
[2] = system: KIT (human), P10721 [A829P]
LATS2 (human) = LATS2 (human) (UniProt Q9NRM7)
[3] = system: LRRK2 (human), Q5S007 [G2019S]
MAP4K5 (human) = MAP4K5 (human) (UniProt Q9Y4K4)
MAPK13 (human) = MAPK13 (human) (UniProt O15264)
MAPKAPK5 (human) = MAPKAPK5 (human) (UniProt Q8IW41)
MYO3B (human) = MYO3B (human) (UniProt Q8WXR4)
Sequence of MYO3B (human) (Q8WXR4 whole entry, looked up): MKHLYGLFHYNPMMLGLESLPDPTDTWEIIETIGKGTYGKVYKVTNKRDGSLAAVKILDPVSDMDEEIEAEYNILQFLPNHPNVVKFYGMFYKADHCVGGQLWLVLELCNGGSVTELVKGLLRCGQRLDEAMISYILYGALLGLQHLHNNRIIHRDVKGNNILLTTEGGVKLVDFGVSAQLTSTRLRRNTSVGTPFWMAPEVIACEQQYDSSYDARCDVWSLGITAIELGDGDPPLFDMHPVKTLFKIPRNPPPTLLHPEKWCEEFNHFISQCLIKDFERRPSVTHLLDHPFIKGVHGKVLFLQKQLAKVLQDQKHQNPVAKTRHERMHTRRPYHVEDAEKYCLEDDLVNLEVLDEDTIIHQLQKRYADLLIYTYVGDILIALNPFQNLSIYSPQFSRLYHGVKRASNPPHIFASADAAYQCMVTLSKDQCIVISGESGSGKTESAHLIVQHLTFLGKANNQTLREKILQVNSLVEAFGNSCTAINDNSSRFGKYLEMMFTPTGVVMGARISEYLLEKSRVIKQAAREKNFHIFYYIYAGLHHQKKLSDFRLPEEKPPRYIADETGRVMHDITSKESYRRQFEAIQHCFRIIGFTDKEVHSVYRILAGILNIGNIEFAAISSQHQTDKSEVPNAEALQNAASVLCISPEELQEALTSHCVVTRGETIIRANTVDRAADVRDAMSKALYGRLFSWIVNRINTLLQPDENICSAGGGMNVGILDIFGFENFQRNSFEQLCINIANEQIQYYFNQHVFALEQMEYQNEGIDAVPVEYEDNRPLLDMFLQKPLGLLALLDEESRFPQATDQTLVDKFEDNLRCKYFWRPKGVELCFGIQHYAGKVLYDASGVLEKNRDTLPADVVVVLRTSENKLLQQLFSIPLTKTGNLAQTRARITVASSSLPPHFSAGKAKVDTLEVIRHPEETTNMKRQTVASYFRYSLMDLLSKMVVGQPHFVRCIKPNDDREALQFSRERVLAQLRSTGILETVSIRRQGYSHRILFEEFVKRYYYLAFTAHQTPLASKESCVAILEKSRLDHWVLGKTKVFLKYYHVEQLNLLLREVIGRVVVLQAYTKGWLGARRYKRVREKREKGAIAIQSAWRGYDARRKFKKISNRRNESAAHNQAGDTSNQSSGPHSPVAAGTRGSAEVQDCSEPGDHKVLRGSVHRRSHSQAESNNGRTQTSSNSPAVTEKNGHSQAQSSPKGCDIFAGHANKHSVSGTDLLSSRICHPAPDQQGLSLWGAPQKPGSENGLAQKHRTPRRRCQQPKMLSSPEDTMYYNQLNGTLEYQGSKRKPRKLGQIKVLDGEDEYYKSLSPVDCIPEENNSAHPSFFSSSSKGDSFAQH

OXSR1 (human) = OXSR1 (human) (UniProt O95747)
PDPK1 (human) = PDPK1 (human) (UniProt O15530)
PIP4K2B (human) = PIP4K2B (human) (UniProt P78356)
PIP5K1A (human) = PIP5K1A (human) (UniProt Q99755)
PRKCD (human) = PRKCD (human) (UniProt Q05655)
PTK6 (human) = PTK6 (human) (UniProt Q13882)
SBK1 (human) = SBK1 (human) (UniProt Q52WX2)
SLK (human) = SLK (human) (UniProt Q9H2G2)
STK32A (human) = STK32A (human) (UniProt Q8WU08)
STK38L (human) = STK38L (human) (UniProt Q9Y2H1)
Sequence of STK38L (human) (Q9Y2H1 whole entry, looked up): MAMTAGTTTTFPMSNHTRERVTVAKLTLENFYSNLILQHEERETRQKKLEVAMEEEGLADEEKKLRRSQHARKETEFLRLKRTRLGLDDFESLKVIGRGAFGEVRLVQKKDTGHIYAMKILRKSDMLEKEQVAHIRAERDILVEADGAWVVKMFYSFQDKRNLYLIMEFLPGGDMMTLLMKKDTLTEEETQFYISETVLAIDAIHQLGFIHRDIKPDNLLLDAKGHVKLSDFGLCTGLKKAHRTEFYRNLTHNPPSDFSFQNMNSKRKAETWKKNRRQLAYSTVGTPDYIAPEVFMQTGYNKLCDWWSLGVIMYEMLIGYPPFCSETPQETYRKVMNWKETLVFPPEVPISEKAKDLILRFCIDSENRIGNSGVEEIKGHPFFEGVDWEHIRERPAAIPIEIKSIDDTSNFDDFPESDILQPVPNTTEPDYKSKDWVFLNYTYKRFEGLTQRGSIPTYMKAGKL

TAOK1 (human) = TAOK1 (human) (UniProt Q7L7X3)
Sequence of TAOK1 (human) (Q7L7X3 whole entry, looked up): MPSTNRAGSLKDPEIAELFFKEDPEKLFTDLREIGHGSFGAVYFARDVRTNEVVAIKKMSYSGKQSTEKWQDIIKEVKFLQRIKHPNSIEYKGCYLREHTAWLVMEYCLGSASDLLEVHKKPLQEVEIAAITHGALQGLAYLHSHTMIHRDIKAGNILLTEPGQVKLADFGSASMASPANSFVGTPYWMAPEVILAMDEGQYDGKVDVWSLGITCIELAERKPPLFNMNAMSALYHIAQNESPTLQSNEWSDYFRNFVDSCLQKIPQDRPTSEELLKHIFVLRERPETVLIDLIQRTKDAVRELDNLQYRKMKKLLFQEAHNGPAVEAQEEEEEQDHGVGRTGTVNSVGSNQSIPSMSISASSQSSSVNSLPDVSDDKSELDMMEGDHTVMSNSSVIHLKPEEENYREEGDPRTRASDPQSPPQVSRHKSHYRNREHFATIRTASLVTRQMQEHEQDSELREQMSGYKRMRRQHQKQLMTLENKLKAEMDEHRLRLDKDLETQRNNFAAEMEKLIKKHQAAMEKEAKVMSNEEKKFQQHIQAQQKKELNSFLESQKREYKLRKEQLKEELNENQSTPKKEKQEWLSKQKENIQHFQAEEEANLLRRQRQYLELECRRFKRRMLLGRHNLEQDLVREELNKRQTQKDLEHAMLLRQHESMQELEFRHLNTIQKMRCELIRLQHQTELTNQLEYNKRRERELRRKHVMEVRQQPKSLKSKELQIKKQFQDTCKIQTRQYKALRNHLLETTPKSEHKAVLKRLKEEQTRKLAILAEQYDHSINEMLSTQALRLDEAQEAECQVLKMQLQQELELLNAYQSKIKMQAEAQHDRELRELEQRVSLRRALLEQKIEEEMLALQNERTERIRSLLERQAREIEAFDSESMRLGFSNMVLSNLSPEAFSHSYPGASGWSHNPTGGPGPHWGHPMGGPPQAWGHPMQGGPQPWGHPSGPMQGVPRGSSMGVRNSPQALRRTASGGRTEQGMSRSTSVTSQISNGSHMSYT

TGFBR1 (human) = TGFBR1 (human) (UniProt P36897)
TGFBR2 (human) = TGFBR2 (human) (UniProt P37173)
TNIK (human) = TNIK (human) (UniProt Q9UKE5)
Sequence of TNIK (human) (Q9UKE5 whole entry, looked up): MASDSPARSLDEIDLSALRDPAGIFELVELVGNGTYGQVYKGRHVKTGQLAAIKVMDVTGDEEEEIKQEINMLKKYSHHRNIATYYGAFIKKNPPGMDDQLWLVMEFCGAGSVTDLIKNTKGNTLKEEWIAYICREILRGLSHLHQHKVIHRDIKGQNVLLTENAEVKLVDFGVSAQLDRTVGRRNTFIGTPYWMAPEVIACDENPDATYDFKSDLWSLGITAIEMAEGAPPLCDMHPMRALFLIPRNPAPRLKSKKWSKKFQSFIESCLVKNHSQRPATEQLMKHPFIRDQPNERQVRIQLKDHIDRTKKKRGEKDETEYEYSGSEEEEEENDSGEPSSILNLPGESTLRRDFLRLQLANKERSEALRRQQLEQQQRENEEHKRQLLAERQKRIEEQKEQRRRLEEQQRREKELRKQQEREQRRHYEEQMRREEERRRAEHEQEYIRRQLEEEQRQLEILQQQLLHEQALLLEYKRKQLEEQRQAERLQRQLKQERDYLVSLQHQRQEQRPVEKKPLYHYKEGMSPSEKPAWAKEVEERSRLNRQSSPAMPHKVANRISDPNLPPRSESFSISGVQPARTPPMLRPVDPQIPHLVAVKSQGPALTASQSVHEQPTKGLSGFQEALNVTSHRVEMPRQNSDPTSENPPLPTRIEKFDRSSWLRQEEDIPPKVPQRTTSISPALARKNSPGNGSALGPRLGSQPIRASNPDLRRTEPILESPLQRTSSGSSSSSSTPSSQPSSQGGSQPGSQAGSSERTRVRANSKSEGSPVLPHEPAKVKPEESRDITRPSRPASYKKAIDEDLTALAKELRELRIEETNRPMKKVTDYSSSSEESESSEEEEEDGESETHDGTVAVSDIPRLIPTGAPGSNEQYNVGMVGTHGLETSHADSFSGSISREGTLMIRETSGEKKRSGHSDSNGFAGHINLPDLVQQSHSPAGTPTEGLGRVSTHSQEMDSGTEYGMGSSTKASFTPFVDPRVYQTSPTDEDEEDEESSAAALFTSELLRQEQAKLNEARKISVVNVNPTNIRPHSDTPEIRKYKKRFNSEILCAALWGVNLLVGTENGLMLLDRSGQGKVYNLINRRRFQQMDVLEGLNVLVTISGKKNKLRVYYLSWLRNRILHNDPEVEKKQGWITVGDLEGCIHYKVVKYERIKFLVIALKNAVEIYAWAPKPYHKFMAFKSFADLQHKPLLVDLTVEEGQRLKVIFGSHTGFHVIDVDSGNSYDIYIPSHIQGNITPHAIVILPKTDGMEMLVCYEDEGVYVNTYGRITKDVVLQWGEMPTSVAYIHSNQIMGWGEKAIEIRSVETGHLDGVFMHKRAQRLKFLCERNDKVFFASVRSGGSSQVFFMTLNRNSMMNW

Compound | kinase still bound, per cent of control (CAMK2B (human)) [%] | kinase still bound, per cent of control (CAMKK2 (human)) [%] | kinase still bound, per cent of control (CASK (human)) [%] | kinase still bound, per cent of control (CDK11B (human)) [%] | kinase still bound, per cent of control (CHEK2 (human)) [%] | kinase still bound, per cent of control (CIT (human)) [%] | kinase still bound, per cent of control (CLK2 (human)) [%] | kinase still bound, per cent of control (CLK3 (human)) [%] | kinase still bound, per cent of control (CaMK1 (human)) [%] | kinase still bound, per cent of control (DCLK1 (human)) [%] | kinase still bound, per cent of control (DYRK2 (human)) [%] | kinase still bound, per cent of control [1] [%] | kinase still bound, per cent of control (ERN1 (human)) [%] | kinase still bound, per cent of control (FGFR2 (human)) [%] | kinase still bound, per cent of control (GRK4 (human)) [%] | kinase still bound, per cent of control (GRK7 (human)) [%] | kinase still bound, per cent of control (HCK (human)) [%] | kinase still bound, per cent of control (HIPK3 (human)) [%] | kinase still bound, per cent of control (IRAK4 (human)) [%] | kinase still bound, per cent of control [2] [%] | further results
COc1cc2ncnc(Nc3cccc(Cl)c3)c2cc1OC | 95 | 72 | 67 | 86 | 6.7 | 7.4 | 53 | 100 | 81 | 54 | 27 | 0.05 | 41 | 99 | 100 | 75 | 6.8 | 54 | 8.9 | 27 | kinase still bound, per cent of control (LATS2 (human)): 40%; kinase still bound, per cent of control [3]: 67%; kinase still bound, per cent of control (MAP4K5 (human)): 26%; kinase still bound, per cent of control (MAPK13 (human)): 100%; kinase still bound, per cent of control (MAPKAPK5 (human)): 9.9%; kinase still bound, per cent of control (MYO3B (human)): 100%; kinase still bound, per cent of control (OXSR1 (human)): 71%; kinase still bound, per cent of control (PDPK1 (human)): 80%; kinase still bound, per cent of control (PIP4K2B (human)): 97%; kinase still bound, per cent of control (PIP5K1A (human)): 93%; kinase still bound, per cent of control (PRKCD (human)): 97%; kinase still bound, per cent of control (PTK6 (human)): 58%; kinase still bound, per cent of control (SBK1 (human)): 25%; kinase still bound, per cent of control (SLK (human)): 2%; kinase still bound, per cent of control (STK32A (human)): 63%; kinase still bound, per cent of control (STK38L (human)): 87%; kinase still bound, per cent of control (TAOK1 (human)): 38%; kinase still bound, per cent of control (TGFBR1 (human)): 88%; kinase still bound, per cent of control (TGFBR2 (human)): 91%; kinase still bound, per cent of control (TNIK (human)): 26%
CCN1CCN(Cc2ccc(NC(=O)c3ccc(C)c(/C=C/c4cnc5[nH]ccc5c4OC)c3)cc2C(F)(F)F)CC1 | 100 | 100 | 77 | 8.5 | 66 | 0 | 71 | 100 | 30 | 93 | 78 | 0.1 | 72 | 3.7 | 8.2 | 77 | 0.45 | 44 | 48 | 64 | kinase still bound, per cent of control (LATS2 (human)): 79%; kinase still bound, per cent of control [3]: 18%; kinase still bound, per cent of control (MAP4K5 (human)): 3.4%; kinase still bound, per cent of control (MAPK13 (human)): 22%; kinase still bound, per cent of control (MAPKAPK5 (human)): 90%; kinase still bound, per cent of control (MYO3B (human)): 40%; kinase still bound, per cent of control (OXSR1 (human)): 74%; kinase still bound, per cent of control (PDPK1 (human)): 65%; kinase still bound, per cent of control (PIP4K2B (human)): 0.4%; kinase still bound, per cent of control (PIP5K1A (human)): 2.6%; kinase still bound, per cent of control (PRKCD (human)): 49%; kinase still bound, per cent of control (PTK6 (human)): 9.6%; kinase still bound, per cent of control (SBK1 (human)): 57%; kinase still bound, per cent of control (SLK (human)): 0.6%; kinase still bound, per cent of control (STK32A (human)): 100%; kinase still bound, per cent of control (STK38L (human)): 35%; kinase still bound, per cent of control (TAOK1 (human)): 0.75%; kinase still bound, per cent of control (TGFBR1 (human)): 100%; kinase still bound, per cent of control (TGFBR2 (human)): 5.7%; kinase still bound, per cent of control (TNIK (human)): 3.2%
COc1cc2c(Nc3ccc(NC(=O)c4ccccc4)cc3)ncnc2cc1OCCCN1CCOCC1 | 78 | 81 | 100 | 16 | 100 | 59 | 80 | 100 | 55 | 73 | 91 | 8.8 | 74 | 89 | 100 | 71 | 2 | 52 | 51 | 59 | kinase still bound, per cent of control (LATS2 (human)): 82%; kinase still bound, per cent of control [3]: 100%; kinase still bound, per cent of control (MAP4K5 (human)): 2.7%; kinase still bound, per cent of control (MAPK13 (human)): 40%; kinase still bound, per cent of control (MAPKAPK5 (human)): 100%; kinase still bound, per cent of control (MYO3B (human)): 100%; kinase still bound, per cent of control (OXSR1 (human)): 100%; kinase still bound, per cent of control (PDPK1 (human)): 100%; kinase still bound, per cent of control (PIP4K2B (human)): 100%; kinase still bound, per cent of control (PIP5K1A (human)): 100%; kinase still bound, per cent of control (PRKCD (human)): 100%; kinase still bound, per cent of control (PTK6 (human)): 0.8%; kinase still bound, per cent of control (SBK1 (human)): 92%; kinase still bound, per cent of control (SLK (human)): 0.95%; kinase still bound, per cent of control (STK32A (human)): 96%; kinase still bound, per cent of control (STK38L (human)): 100%; kinase still bound, per cent of control (TAOK1 (human)): 95%; kinase still bound, per cent of control (TGFBR1 (human)): 100%; kinase still bound, per cent of control (TGFBR2 (human)): 82%; kinase still bound, per cent of control (TNIK (human)): 51%
